Assay results from ChEMBL document CHEMBL1158235, “Dendroamides, new cyclic hexapeptides from a blue-green alga. Multidrug-resistance reversing activity of dendroamide A” (J Nat Prod, 1996).
Calls of active or inactive are those of the source. The calls are words filed in the database; no cut-off is given here.

Experiments:
Assay type in all cases: cell-based
[1] = target: T1, ATP-dependent translocase ABCB1 (Homo sapiens, UniProt P08183); test: Inhibition of p-glycoprotein expressing human MCF7/ADR cells assessed as cell killing after 48 hrs by SRB binding assay in presence of 4 uM cisplatin; settings: nci/adr-res
T1 sequence (P08183 whole entry): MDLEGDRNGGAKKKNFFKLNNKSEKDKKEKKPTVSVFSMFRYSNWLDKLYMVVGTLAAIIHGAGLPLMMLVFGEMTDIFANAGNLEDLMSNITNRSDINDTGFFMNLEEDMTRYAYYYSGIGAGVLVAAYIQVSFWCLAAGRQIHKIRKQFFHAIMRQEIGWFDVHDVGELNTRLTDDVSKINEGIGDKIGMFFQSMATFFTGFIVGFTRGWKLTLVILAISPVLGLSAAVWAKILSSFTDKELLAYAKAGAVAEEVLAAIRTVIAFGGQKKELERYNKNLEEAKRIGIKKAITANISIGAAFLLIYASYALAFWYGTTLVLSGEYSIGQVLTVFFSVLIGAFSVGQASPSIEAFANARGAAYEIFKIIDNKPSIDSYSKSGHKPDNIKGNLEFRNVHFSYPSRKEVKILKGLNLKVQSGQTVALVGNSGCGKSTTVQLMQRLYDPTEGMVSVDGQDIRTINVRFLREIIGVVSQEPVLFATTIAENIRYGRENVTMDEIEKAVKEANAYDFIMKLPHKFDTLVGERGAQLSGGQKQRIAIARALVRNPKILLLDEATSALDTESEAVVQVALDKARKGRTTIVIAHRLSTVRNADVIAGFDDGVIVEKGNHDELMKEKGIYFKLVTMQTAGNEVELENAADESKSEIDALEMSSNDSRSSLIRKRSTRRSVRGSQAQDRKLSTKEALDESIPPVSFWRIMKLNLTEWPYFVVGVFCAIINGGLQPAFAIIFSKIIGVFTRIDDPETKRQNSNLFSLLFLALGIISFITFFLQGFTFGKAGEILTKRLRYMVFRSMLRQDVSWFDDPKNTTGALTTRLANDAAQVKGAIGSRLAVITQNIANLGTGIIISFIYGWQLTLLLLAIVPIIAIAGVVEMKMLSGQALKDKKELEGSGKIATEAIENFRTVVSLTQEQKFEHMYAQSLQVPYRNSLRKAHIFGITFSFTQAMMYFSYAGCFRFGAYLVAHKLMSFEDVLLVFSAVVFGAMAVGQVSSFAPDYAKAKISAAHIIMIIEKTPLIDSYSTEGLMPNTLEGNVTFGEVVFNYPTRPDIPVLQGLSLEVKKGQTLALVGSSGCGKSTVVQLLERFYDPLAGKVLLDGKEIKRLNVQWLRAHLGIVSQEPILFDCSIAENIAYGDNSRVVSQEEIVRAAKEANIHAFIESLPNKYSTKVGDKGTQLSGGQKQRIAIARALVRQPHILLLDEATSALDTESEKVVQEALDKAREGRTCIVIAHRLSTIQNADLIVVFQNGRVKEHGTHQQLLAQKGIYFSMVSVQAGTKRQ

MCF7/VP [2] = test: Inhibition of MRP expressed in human MCF7/VP cells assessed as increase in doxorubicin-induced cytotoxicity
MCF7/VP [3] = test: Inhibition of MRP expressing human MCF7/VP cells assessed as increase in vincristine-induced cytotoxicity at 5 to 10 uM after 48 hrs by SRB binding assay
[4] = target: T1, ATP-dependent translocase ABCB1; test: Inhibition of p-glycoprotein expressing human MCF7/ADR cells assessed as cell killing after 48 hrs by SRB binding assay in presence of 200 uM actinomycin D; settings: nci/adr-res
[5] = target: T1, ATP-dependent translocase ABCB1; test: Inhibition of p-glycoprotein expressing human MCF7/ADR cells assessed as increase in vinblastine sensitivity to cell killing at 0.6 uM after 48 hrs by SRB assay; settings: nci/adr-res
MCF7/VP [6] = test: Inhibition of MRP expressed in human MCF7/VP cells assessed as increase in etoposide-induced cytotoxicity
[7] = target: T1, ATP-dependent translocase ABCB1; test: Inhibition of p-glycoprotein expressing human MCF7/ADR cells assessed as cell killing after 48 hrs by SRB binding assay in presence of 15M daunomycin; settings: nci/adr-res
[8] = target: T1, ATP-dependent translocase ABCB1; test: Inhibition of p-glycoprotein expressing human MCF7 cells assessed as [3H]vinblastine accumulation
MCF7/VP [9] = test: Inhibition of MRP expressed in human MCF7/VP cells assessed as increase in cisplatin-induced cytotoxicity
NCI/ADR-RES [10] = test: Displacement of [3H]azidopine from p-glycoprotein expressed in human MCF7/ADR cells assessed as photoaffinity labeling reduction at 0.5 uM; design: scale not given: the % may be the effect or the level left
NCI/ADR-RES [11] = test: Displacement of [3H]azidopine from p-glycoprotein expressed in human MCF7/ADR cells assessed as photoaffinity labeling reduction at 10 uM; design: scale not given: the % may be the effect or the level left
[12] = target: T1, ATP-dependent translocase ABCB1; test: Inhibition of p-glycoprotein expressing human MCF7/ADR cells assessed as [3H]vinblastine accumulation treated at 20 uM measured after 60 mins; settings: nci/adr-res, 1 h
[13] = target: T1, ATP-dependent translocase ABCB1; test: Inhibition of p-glycoprotein expressing human MCF7/ADR cells assessed as [3H]vinblastine accumulation treated at 5 uM measured after 60 mins; settings: nci/adr-res, 1 h
MCF7/VP [14] = test: Inhibition of MRP expressed in human MCF7/VP cells assessed as increase in vincristine-induced cytotoxicity at 20 uM after 48 hrs by SRB binding assay

Row | Activity [8] | Activity [12] | Activity [13] | SMILES | Activity [1] | Activity (MCF7/VP [2]) | Activity (MCF7/VP [3]) | Activity [4] | Activity [5] | Activity (MCF7/VP [6]) | Activity [7] | Activity (MCF7/VP [9]) | Activity (NCI/ADR-RES [10]) | Activity (NCI/ADR-RES [11]) | Activity (MCF7/VP [14])
1 | Not Active | – | – | Cc1oc2nc1C(=O)N[C@H](C(C)C)c1nc(cs1)C(=O)N[C@H](C)c1nc(cs1)C(=O)N[C@@H]2C [DENDROAMIDE A] | Not Active | Active | Active | Active | Active | Active | Active | inactive | 50% | – | –
2 | Not Active | Not Active | Not Active | CSCC[C@H]1NC(=O)c2csc(n2)[C@@H](C)NC(=O)c2nc(oc2C)[C@@H](C)NC(=O)c2csc1n2 [DENDROAMIDE B] | Not Active | – | – | Not Active | Not Active | – | Not Active | – | inactive | inactive | –
3 | Not Active | Not Active | Not Active | Cc1oc2nc1C(=O)N[C@H](C)c1nc(cs1)C(=O)N[C@H](CC[S+](C)[O-])c1nc(cs1)C(=O)N[C@@H]2C (stereo partly specified) [DENDROAMIDE C] | Not Active | – | – | Not Active | Not Active | – | Not Active | – | inactive | inactive | –
4 | Not Active | – | – | COc1ccc(CCN(C)CCCC(C#N)(c2ccc(OC)c(OC)c2)C(C)C)cc1OC (stereo unspecified) [VERAPAMIL] | – | – | – | – | – | – | – | – | – | 50% | Active
